Measurements published in PubChem BioAssay (NCI).
Where “and” joins values, the source holds several entries; their conditions need not be identical. Equal entries are not always repeated.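 Each compound was tested at five concentrations against cells in 96-well plates for 48 hours. GI50: concentration for 50% inhibition of growth. The concentration for full growth arrest is given as TGI.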

Key:
Assay in all cases: NCI-60 cell line screen, 48 h
A498 renal = system: A498 renal
COLO 205 colon = system: COLO 205 colon
DU-145 prostate = system: DU-145 prostate
HL-60(TB) leukemia = system: HL-60(TB) leukemia
HOP-62 NSCLC = system: HOP-62 NSCLC
K-562 leukemia = system: K-562 leukemia
MOLT-4 leukemia = system: MOLT-4 leukemia
NCI-H460 lung = system: NCI-H460 lung
SNB-75 CNS = system: SNB-75 CNS
SW-620 colon = system: SW-620 colon

SMILES | GI50 (A498 renal) | TGI (A498 renal) | GI50 (COLO 205 colon) | TGI (COLO 205 colon) [µM] | GI50 (DU-145 prostate) | TGI (DU-145 prostate) | GI50 (HL-60(TB) leukemia) | TGI (HL-60(TB) leukemia) | GI50 (HOP-62 NSCLC) | TGI (HOP-62 NSCLC) | GI50 (K-562 leukemia) | TGI (K-562 leukemia) | GI50 (MOLT-4 leukemia) | TGI (MOLT-4 leukemia) | GI50 (NCI-H460 lung) | TGI (NCI-H460 lung) | GI50 (SNB-75 CNS) | TGI (SNB-75 CNS) | GI50 (SW-620 colon) | TGI (SW-620 colon)
CS(=O)(=O)Nc1cc(-c2ccc3ncc(C#N)c(Nc4ccc(F)c(Cl)c4)c3c2)cnc1Cl | 0.0398 µM | 0.302 µM | 0.232 µM | 0.943 | 0.242 µM | > 22.1 µM | 0.12 µM | 0.741 µM | 0.195 µM | 8.42 µM | 0.201 µM | > 100 µM | 0.0783 µM | 0.487 µM | 0.301 µM | > 29.1 µM | 0.0251 µM | 0.507 µM | 0.107 µM | 4.31 µM
COc1ccc2[nH]c(C(=O)OCc3ccc4c(Br)cc(Br)c(O)c4n3)cc2c1 | 1.8 µM | 3.31 µM | 0.442 µM | 1.92 | 1.12 µM | 2.33 µM | 0.7 µM | 3.41 µM | 1.38 µM | 3.34 µM | 0.495 µM | 4.94 µM | 0.452 µM | 2.17 µM | 1.48 µM | 3.18 µM | 0.307 µM | 1.73 µM | 0.364 µM | 1.41 µM
CNC(=O)/C=C/C1=CN2C(=O)c3ccc(C)c(O)c3NC(OC)C2C1 (centres undefined) | – | 0.713 µM | – | < 0.0202 | – | < 0.01 µM | – | 0.865 µM | – | 0.328 µM | – | > 100 µM | – | > 8.39 µM | – | 1.03 µM | – | < 0.0269 µM | – | 24.4 µM
COc1ccc(N=Nc2ccc(O)c(=O)cc2)cc1 | 24.1 µM | > 100 µM | 7.07 µM | > 100 | 4.07 µM | > 100 µM | 3.55 µM | > 100 µM | 4.19 µM | 41.8 µM | 3.69 µM | > 100 µM | 3.69 µM | > 100 µM | 1.79 µM | 18.9 µM | 3.43 µM | > 100 µM | 4.08 µM | > 100 µM
O=C1CCc2cc(Br)ccc2O1 | – | > 100 µM | – | > 100 | – | > 100 µM | – | > 100 µM | – | > 100 µM | – | > 100 µM | – | > 100 µM | – | > 100 µM | – | 92.8 µM | – | > 100 µM
NS(=O)(=O)c1ccc(N=Nc2c(O)[nH]c3ccc(C(=O)NCCCn4ccnc4)cc23)cc1 | > 25 µM | > 25 µM | > 25 µM | > 25 | > 25 µM | > 25 µM | > 25 µM | > 25 µM | > 25 µM | > 25 µM | > 25 µM | > 25 µM | > 25 µM | > 25 µM | > 25 µM | > 25 µM | > 25 µM | > 25 µM | > 25 µM | > 25 µM
CC[C@]12C=CCN3CC[C@]4(C(=C(C(=O)OC)C1)Nc1cc5c(cc14)[C@@H]1[C@H](O5)[C@@H](O)[C@@]4(CC)CC(C(=O)OC)=C5Nc6ccccc6[C@@]56CCN1[C@@H]46)[C@@H]32 | 0.0729 µM and 0.283 µM | 0.788 µM and 1.17 µM | 0.0695 µM | 2.78 | 1.59 µM and 1.77 µM | 25 µM and 10.7 µM | 0.134 µM and 0.269 µM | 9.05 µM and 1.91 µM | 0.319 µM | > 100 µM | 0.129 µM and 0.276 µM | – | 0.432 µM and 0.338 µM | 25 µM and > 100 µM | 1.05 µM and 1.13 µM | 7.05 µM and 11.9 µM | 0.0335 µM and 0.161 µM | 25 µM and 18.7 µM | 0.868 µM and 0.495 µM | 13.5 µM and 7.85 µM
CC(=O)OC1C(O)C(C)OC(OC2C(OC(=O)C3CCC4C(C3)OC3(CC(OC(=O)/C=C/c5ccccc5)C(C)CO3)C43CO3)OC(C)C(O)C2OC(C)=O)C1O (centres undefined) | – | 0.188 µM | – | 0.0181 | – | 0.0714 µM | – | 0.0192 µM | – | 0.0519 µM | – | 0.241 µM | – | 0.032 µM | – | 0.141 µM | – | 0.0317 µM | – | 0.184 µM
c1cc[n+](Cc2c3ccccc3cc3c2ccc2ccccc23)cc1 | 14.4 µM | 40.9 µM | 1.88 µM | 5.24 | 6.45 µM | 20.4 µM | 3.15 µM | 12.5 µM | 2.41 µM | 11.7 µM | 3.21 µM | 17.8 µM | 3.26 µM | 14.7 µM | 3.26 µM | 11.9 µM | 1.35 µM | 5.36 µM | 6.16 µM | 21.9 µM
CCOC(=O)c1c(-c2ccccc2)n2c(=O)cc(C)c3c(O)c(O)cc1c32 | 13 µM | 37.6 µM | 11 µM | 28.2 | 10.5 µM | 23.9 µM | 3.34 µM | 10.8 µM | 11.1 µM | 54.5 µM | 6.93 µM | 22.7 µM | 3.81 µM | 17.7 µM | 2.6 µM | 25.3 µM | 8.95 µM | 88.1 µM | 4.74 µM | 18.5 µM
Cc1c(O)cccc1C(=O)N[C@@H](CSc1ccccc1)[C@H](O)CN1C[C@H]2CCCC[C@H]2C[C@H]1C(=O)NC(C)(C)C | 10.5 µM and 4.26 µM | 24.9 µM and 15.3 µM | 2.24 µM and 4.05 µM | 6.03 | 6.58 µM and 8.27 µM | 25.2 µM and 31.8 µM | 2.95 µM and 3.43 µM | > 26 µM and 13.6 µM | 7.26 µM and 5 µM | 21.3 µM and 14.6 µM | 3.35 µM and 10.3 µM | > 100 µM and 31.3 µM | 2.22 µM and 2.96 µM | 5.46 µM and 10.4 µM | 3.48 µM and 4.79 µM | 13.8 µM and 11.4 µM | 2.77 µM and 2.58 µM | 14.5 µM and 18.4 µM | 5.66 µM and 8.79 µM | 27 µM and 29.9 µM
COc1ccccc1CNCCCN1C(=O)c2ccc3c4c(ccc(c24)C1=O)C(=O)N(CCCNCCCCNCCCN)C3=O | 1.34 µM | 3.14 µM | 0.168 µM | 0.317 | 0.682 µM | 2.03 µM | 0.409 µM | 1.69 µM | 0.658 µM | 2.25 µM | 0.302 µM | 7.05 µM | 0.57 µM | 8.31 µM | 0.36 µM | 1.5 µM | 0.609 µM | 1.86 µM | 0.26 µM | 1.28 µM
CS(=O)(=O)N1CCC(Nc2ncc(C(=O)c3c(F)cccc3F)c(N)n2)CC1 | 9.15 µM | > 25 µM | 6.26 µM | > 25 | 9.76 µM | > 25 µM | 8.65 µM | > 25 µM | 12.6 µM | > 25 µM | 20.4 µM | > 25 µM | 11.2 µM | > 25 µM | 4.25 µM | > 25 µM | > 10.9 µM | 24.3 µM | 5.73 µM | > 25 µM
